From US9017722B2, “Pharmaceutical composition containing as an active ingredient 5-methyl-1-phenyl-2-(1H)-pyridone” (Intermune, Inc., priority 2001, dated 2015)

Experiment: Light exposure testing (color difference after light irradiation)
Type: physicochemical
Settings: for Discoloration / Color difference (ΔE): D65 fluorescent lamp, 3570 Lx, exposure dose 1,200,000 Lx·hr, 25° C., room humidity; for Color difference (ΔE): CIELAB, reflected ray measurement; for light-stability (conclusion from Table 2): light exposure test, 1,200,000 Lx·hr
Procedure: Light exposure test of pirfenidone was carried out under the following condition, using “drug substance” obtained by packing 500 mg of milled pirfenidone drug substance in a heat-sealed transparent SP (Striped Package), “compressed drug substance” obtained by statically compressing 300 mg of milled pirfenidone drug substance, “the plain tablets” obtained in the above Example 1, and “the coated tablets” obtained in the above Example 1. […]
light irradiation apparatus: light stability test apparatus (LTL400-D5) (Nagano Science Equipment Mfg. Co., Ltd.) fluorescent light: D65 fluorescent lamp for color comparing and test temperature and humidity: 25° C., room humidity illumination intensity: 3570 Lx […]
coloring difference measure apparatus: Color analyzer TC-1800MK-II measurement method: reflected ray measurement color specification system: CIELAB measurement condition: second degree visual field

Cc1ccc(=O)n(-c2ccccc2)c1 [Drug substance, 5-Methyl-1-phenyl-2-(1H)-pyridone]
Discoloration: slight | Color difference (ΔE): 0.73 | light-stability (conclusion from Table 2) (listed as pirfenidone drug substance): remarkable color difference was not observed

Cc1ccc(=O)n(-c2ccccc2)c1 [Compressed drug substance, 5-Methyl-1-phenyl-2-(1H)-pyridone]
Discoloration: remarkable | Color difference (ΔE): 3.62 | light-stability (conclusion from Table 2) (listed as pirfenidone compressed drug substance): have a problem in light-stability
